Toxic doses and inconclusive results are not listed. No stated cut-off is given here; in the data, active means T/C of 150% or more; inactive means T/C below 125%.
Tested on: L1210 leukemia ip in BDF1 mice, survival T/C
Assay: NCI In Vivo Anticancer Drug Screen. Data for tumor model L1210 Leukemia (intraperitoneal) in B6D2F1 (BDF1) mice
Conditions: endpoint: mean survival time, higher = longer survival
Summary of the method: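 Ratio derived from survival: compound-dosed mice over vehicle-dosed mice, all bearing a transplantable tumor.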

[1] = dose: 100.0 mg/kg/injection, schedule: Q04DX003 (ip), vehicle: saline with Tween-80
[2] = dose: 200.0 mg/kg/injection, schedule: Q04DX003 (ip), vehicle: saline with Tween-80
[3] = dose: 50.0 mg/kg/injection, schedule: Q01DX009 (ip), vehicle: Klucel (hydroxypropylcellulose) (HPC)
[4] = dose: 100.0 mg/kg/injection, schedule: Q01DX009 (ip), vehicle: Klucel (hydroxypropylcellulose) (HPC)
[5] = dose: 200.0 mg/kg/injection, schedule: Q01DX009 (ip), vehicle: Klucel (hydroxypropylcellulose) (HPC)
[6] = dose: 400.0 mg/kg/injection, schedule: Q01DX009 (ip), vehicle: Klucel (hydroxypropylcellulose) (HPC)
[7] = dose: 100.0 mg/kg/injection, schedule: Q01DX001 (ip), vehicle: Klucel (hydroxypropylcellulose) (HPC)
[8] = dose: 100.0 mg/kg/injection, schedule: Q04DX003 (ip), vehicle: Klucel (hydroxypropylcellulose) (HPC)
[9] = dose: 200.0 mg/kg/injection, schedule: Q01DX001 (ip), vehicle: Klucel (hydroxypropylcellulose) (HPC)
[10] = dose: 200.0 mg/kg/injection, schedule: Q04DX003 (ip), vehicle: Klucel (hydroxypropylcellulose) (HPC)
[11] = dose: 400.0 mg/kg/injection, schedule: Q01DX001 (ip), vehicle: Klucel (hydroxypropylcellulose) (HPC)
[12] = dose: 400.0 mg/kg/injection, schedule: Q04DX003 (ip), vehicle: Klucel (hydroxypropylcellulose) (HPC)
[13] = dose: 75.0 mg/kg/injection, schedule: Q01DX001 (ip), vehicle: saline
[14] = dose: 100.0 mg/kg/injection, schedule: Q04DX002 (ip), vehicle: Klucel (hydroxypropylcellulose) (HPC)
[15] = dose: 200.0 mg/kg/injection, schedule: Q04DX002 (ip), vehicle: Klucel (hydroxypropylcellulose) (HPC)
[16] = dose: 400.0 mg/kg/injection, schedule: Q04DX002 (ip), vehicle: Klucel (hydroxypropylcellulose) (HPC)
[17] = dose: 100.0 mg/kg/injection, schedule: Q01DX001 (ip), vehicle: carboxymethylcellulose (CMC)
[18] = dose: 400.0 mg/kg/injection, schedule: Q01DX001 (ip), vehicle: carboxymethylcellulose (CMC)

Measured: T/C

Nc1cccc(OCCCCc2ccccc2)c1
inactive: [1] 101 % of control | [2] 95 % of control

O=C1OC(c2ccccc2)=N/C1=C1\OC(=O)c2ccccc21
inactive: [3] 92 % of control | [4] 86 % of control | [5] 92 % of control | [6] 89 % of control

O=C1c2cccc(Sc3ccccc3)c2C(=O)c2c(Sc3ccccc3)cccc21
inactive: [1] 91 % of control | [2] 88 % of control | dose: 400.0 mg/kg/injection, schedule: Q04DX003 (ip), vehicle: saline with Tween-80 91 % of control

C#CCOCCBr
inactive: [1] 97 % of control | [2] 95 % of control

C=C(Br)CNC(=O)NN1CCOCC1
inactive: [7] 115 % of control | [8] 95 % of control | [9] 111 % of control | [10] 98 % of control | [11] 102 % of control | [12] 97 % of control

c1csc(Cc2cccs2)c1
inactive: dose: 50.0 mg/kg/injection, schedule: Q01DX009 (ip), vehicle: other 112 % of control | dose: 100.0 mg/kg/injection, schedule: Q01DX009 (ip), vehicle: other 112 % of control | dose: 200.0 mg/kg/injection, schedule: Q01DX009 (ip), vehicle: other 116 % of control

O=C(O)CCCC1CCCCc2ccccc21 (stereo not given)
inactive: dose: 100.0 mg/kg/injection, schedule: Q04DX003 (ip), vehicle: acetone 103 % of control | dose: 200.0 mg/kg/injection, schedule: Q04DX003 (ip), vehicle: acetone 100 % of control | dose: 400.0 mg/kg/injection, schedule: Q04DX003 (ip), vehicle: acetone 110 % of control

CCCCCCCCCCCCCCCCn1cnc2ncnc(Cl)c21
inactive: dose: 12.5 mg/kg/injection, schedule: Q01DX005 (ip), vehicle: other 100 % of control | dose: 25.0 mg/kg/injection, schedule: Q01DX005 (ip), vehicle: other 102 % of control | dose: 50.0 mg/kg/injection, schedule: Q01DX005 (ip), vehicle: other 98 % of control | dose: 100.0 mg/kg/injection, schedule: Q01DX005 (ip), vehicle: other 105 % of control | dose: 200.0 mg/kg/injection, schedule: Q01DX005 (ip), vehicle: other 100 % of control

NC1C2C3C=CC(C(C(=O)O)C3C(=O)O)C12 (stereo not given)
inactive: [8] 98 % of control | [10] 102 % of control | [12] 101 % of control

CCOC(=O)c1[nH]c(C)c(CC(C(=O)OCC)C(=O)OCC)c1C
inactive: dose: 25.0 mg/kg/injection, schedule: Q04DX003 (ip), vehicle: Klucel (hydroxypropylcellulose) (HPC) 97 % of control | dose: 50.0 mg/kg/injection, schedule: Q04DX003 (ip), vehicle: Klucel (hydroxypropylcellulose) (HPC) 93 % of control | [7] 101 % of control | [8] 95 % of control | [9] 95 % of control | [11] 98 % of control

CCC[N+](C)(C)CC
inactive: dose: 37.5 mg/kg/injection, schedule: Q01DX001 (ip), vehicle: saline 104 % of control | [13] 95 % of control

O=C1c2ccccc2C(=O)N1Cc1cccc(CBr)c1
inactive: dose: 50.0 mg/kg/injection, schedule: Q01DX001 (ip), vehicle: Klucel (hydroxypropylcellulose) (HPC) 105 % of control | [7] 92 % of control | [9] 91 % of control

C1=CC2CCC(C1)C21OCCO1 (stereo not given)
inactive: dose: 100.0 mg/kg/injection, schedule: Q01DX009 (ip), vehicle: saline 92 % of control | dose: 100.0 mg/kg/injection, schedule: Q04DX003 (ip), vehicle: alcohol 108 % of control | dose: 200.0 mg/kg/injection, schedule: Q01DX009 (ip), vehicle: saline 96 % of control | dose: 200.0 mg/kg/injection, schedule: Q04DX003 (ip), vehicle: alcohol 108 % of control | dose: 400.0 mg/kg/injection, schedule: Q01DX009 (ip), vehicle: saline 94 % of control | dose: 400.0 mg/kg/injection, schedule: Q04DX003 (ip), vehicle: alcohol 97 % of control

C1CCc2c(c3c(c4c2CCCC4)CCCC3)C1
inactive: [14] 100 % of control | [15] 93 % of control | [16] 97 % of control

CC1CN1C(=O)c1cc(C(=O)N2CC2C)cc(C(=O)N2CC2C)c1 (stereo not given)
inactive: dose: 15.0 mg/kg/injection, schedule: Q01DX001 (ip), vehicle: saline 102 % of control | dose: 15.0 mg/kg/injection, schedule: Q04DX003 (ip), vehicle: saline 98 % of control | dose: 30.0 mg/kg/injection, schedule: Q01DX001 (ip), vehicle: saline 105 % of control | dose: 30.0 mg/kg/injection, schedule: Q04DX003 (ip), vehicle: saline 98 % of control | dose: 60.0 mg/kg/injection, schedule: Q01DX001 (ip), vehicle: saline 102 % of control | dose: 60.0 mg/kg/injection, schedule: Q04DX003 (ip), vehicle: saline 102 % of control

CC12CCC(CC(=O)O1)C2(C)C (stereo not given)
inactive: [13] 114 % of control

CC(=O)c1cc(Cl)ccc1Cl
inactive: dose: 100.0 mg/kg/injection, schedule: Q04DX002 (ip), vehicle: saline 97 % of control | dose: 200.0 mg/kg/injection, schedule: Q04DX002 (ip), vehicle: saline 103 % of control | dose: 400.0 mg/kg/injection, schedule: Q04DX002 (ip), vehicle: saline 103 % of control

COc1ccc(OC)c(CCl)c1
inactive: dose: 75.0 mg/kg/injection, schedule: Q01DX009 (ip), vehicle: Klucel (hydroxypropylcellulose) (HPC) 97 % of control | dose: 150.0 mg/kg/injection, schedule: Q01DX009 (ip), vehicle: Klucel (hydroxypropylcellulose) (HPC) 103 % of control | dose: 300.0 mg/kg/injection, schedule: Q01DX009 (ip), vehicle: Klucel (hydroxypropylcellulose) (HPC) 91 % of control

CCCCCCCCCCc1nc(N)nc(NCCc2ccccc2)n1
inactive: [14] 106 % of control | [15] 89 % of control | [16] 100 % of control

NNC(=O)CNc1cccc(Cl)c1
inactive: [14] 101 % of control | [15] 108 % of control

CCOC(=O)C(Cl)CCl (stereo not given)
inactive: [3] 97 % of control | [4] 100 % of control | [8] 108 % of control | [5] 104 % of control | [10] 97 % of control

CCCN(CCC)N=Nc1ccccc1-c1nc(N)c2ccccc2n1
inactive: [8] 106 % of control | [10] 98 % of control | [12] 101 % of control

O=C1CCC(c2ccccc2)(C2CCN(Cc3ccc(F)cc3)CC2)C(=O)N1 (stereo not given)
inactive: dose: 6.25 mg/kg/injection, schedule: Q01DX009 (ip), vehicle: saline 97 % of control | dose: 12.5 mg/kg/injection, schedule: Q01DX009 (ip), vehicle: saline 102 % of control | dose: 25.0 mg/kg/injection, schedule: Q01DX009 (ip), vehicle: saline 102 % of control

C[C@@H]1C[C@@]2(C)[C@@H](CC[C@@H]3[C@@H]2CC[C@]2(C)[C@@H](OC4CCCCO4)CC[C@@H]32)CC1=O (stereo not given in full)
inactive: [17] 93 % of control | [18] 88 % of control

COc1ccc(CCN=Cc2ccc(Cl)cc2)cc1OC
inactive: [4] 104 % of control | [8] 93 % of control | [5] 95 % of control | [10] 96 % of control | [6] 95 % of control | [12] 103 % of control

Cc1ccc(N=Nc2sc(N)nc2C)c(C)c1
inactive: [13] 97 % of control | dose: 150.0 mg/kg/injection, schedule: Q01DX001 (ip), vehicle: saline 103 % of control

CCOC(=O)C(=O)Nc1onc(C)c1[N+](=O)[O-]
inactive: [7] 91 % of control | [4] 93 % of control | [9] 97 % of control | [5] 93 % of control | [11] 100 % of control

O=C(OC1COC(n2c(=O)oc3cc(Br)c(Cl)cc32)C(OC(=O)c2ccccc2)C1OC(=O)c1ccccc1)c1ccccc1 (stereo not given)
inactive: [17] 96 % of control | dose: 200.0 mg/kg/injection, schedule: Q01DX001 (ip), vehicle: carboxymethylcellulose (CMC) 96 % of control | [18] 89 % of control

CCCC(=O)N1C(C)CCC1C (stereo not given)
inactive: dose: 100.0 mg/kg/injection, schedule: Q04DX002 (ip), vehicle: saline with Tween-80 103 % of control | dose: 200.0 mg/kg/injection, schedule: Q04DX002 (ip), vehicle: saline with Tween-80 95 % of control

Cc1ccccc1NC(=O)Nc1cccc(C)c1C
inactive: [4] 87 % of control | [8] 98 % of control | [5] 95 % of control | [10] 93 % of control | [12] 94 % of control
